Drawing on US10155021B2, “Antimicrobial 4-oxoquinolizines” (Emergent Product Development Gaithersburg Inc., priority 2011, dated 2018), this text covers MIC and MBC for one compound.

Assay [1] relates to Acinetobacter sp. (H064200250). The assay can be described thus: MIC without and with sub-inhibitory polymyxin B (Example 4). The conditions noted are these: Acinetobacter, Acinetobacter spp. H064200250; without polymyxin B; 1st experiment; read-out: MIC without PB. The assay is classed as cell-based.
The subject of assay [2] is A. baumannii J2. The assay is described as follows: Preliminary MBC without and with sub-inhibitory polymyxin B (Example 4). The assay is classed as cell-based, Acinetobacter baumannii. To be noted: Acinetobacter baumannii, J2, A. baumannii J2; without polymyxin B; preliminary MBC; 1st experiment; read-out: MBC without PB.
The test system of assay [3] is A. baumannii A401. The assay is described as above. To be noted: Acinetobacter baumannii, A401, A baumannii A 401; without polymyxin B; preliminary MBC; 1st experiment; read-out: MBC without PB. The assay is classed as cell-based, Acinetobacter baumannii.
In assay [4] the test system is A. baumannii A473. The assay can be described thus: MIC without and with sub-inhibitory polymyxin B (Example 4). It is filed as cell-based, Acinetobacter baumannii. To be noted: Acinetobacter baumannii, A473, A. baumannii A473; without polymyxin B; 1st experiment; read-out: MIC without PB.
Assay [5] relates to Acinetobacter sp. (H064200250). The assay can be described thus: Preliminary MBC without and with sub-inhibitory polymyxin B (Example 4). The assay is classed as cell-based. To be noted: Acinetobacter, Acinetobacter spp. H064200250; without polymyxin B; preliminary MBC; 1st experiment; read-out: MBC without PB. The method, then:
The plates were incubated for 18-20 hours at 37° C. The MBC was read as the lowest concentration at which colony growth was ca. 90% less than the positive control (i.e. usually where single colonies or no colonies were observed).

For assay [6], the system named is A. baumannii A472. The assay can be described thus: MIC without and with sub-inhibitory polymyxin B (Example 4). It is filed as cell-based, Acinetobacter baumannii. To be noted: Acinetobacter baumannii, A472, A. baumannii A472; without polymyxin B; 1st experiment; read-out: MIC without PB.
The test system of assay [7] is A. baumannii A472. The assay can be described thus: Preliminary MBC without and with sub-inhibitory polymyxin B (Example 4). The conditions noted are these: Acinetobacter baumannii, A472, A. baumannii A472, without polymyxin B, 1st experiment, read-out: MBC without PB. It is filed as cell-based, Acinetobacter baumannii.
The test system of assay [8] is A. baumannii J2. The assay is described as follows: MIC without and with sub-inhibitory polymyxin B (Example 4). To be noted: Acinetobacter baumannii, J2, A. baumannii J2; without polymyxin B; 1st experiment; read-out: MIC without PB. It is filed as cell-based, Acinetobacter baumannii.
Assay [9] relates to A. baumannii A387. The assay can be described thus: Preliminary MBC without and with sub-inhibitory polymyxin B (Example 4). It is filed as cell-based, Acinetobacter baumannii. To be noted: Acinetobacter baumannii, A387, A. baumannii A387, without polymyxin B, 1st experiment, read-out: MBC without PB.
Assay [10] relates to A. baumannii A489. The assay is described as above. It is filed as cell-based, Acinetobacter baumannii. To be noted: Acinetobacter baumannii, A489, A. baumannii A489, without polymyxin B, 1st experiment, read-out: MBC without PB.
The test system of assay [11] is A. baumannii A329. The assay can be described thus: MIC without and with sub-inhibitory polymyxin B (Example 4). It is filed as cell-based, Acinetobacter baumannii. The conditions noted are these: Acinetobacter baumannii, A329, A. baumannii A329; without polymyxin B; 1st experiment; read-out: MIC without PB.
The next assay relates to A. baumannii ATCC 19606. The assay can be described thus: Preliminary MBC without and with sub-inhibitory polymyxin B (Example 4). It is filed as cell-based, Acinetobacter baumannii. The conditions noted are these: Acinetobacter baumannii, ATCC19606, A. baumannii ATCC 19606; without polymyxin B; preliminary MBC; 1st experiment; read-out: MBC without PB.
The test system of assay [12] is resistant strains of A. baumannii and one strain of Acinetobacter sp. The assay can be described thus: MIC without and with sub-inhibitory polymyxin B, whole panel / MIC ranges (Example 4; also strains not listed separately). The assay is classed as cell-based. The conditions noted are these: Acinetobacter baumannii, read-out: MIC range without PB 01-10-2008 n = 8, without polymyxin B; 1st experiment, 8 strains.

Assay [13] concerns A. baumannii A401. The assay is described as follows: MIC without and with sub-inhibitory polymyxin B (Example 4). To be noted: Acinetobacter baumannii, A401, A baumannii A 401; without polymyxin B; 1st experiment; read-out: MIC without PB. The assay is classed as cell-based, Acinetobacter baumannii.
For assay [14], the system named is A. baumannii A489. The description is as above. It is filed as cell-based, Acinetobacter baumannii. To be noted: Acinetobacter baumannii, A489, A. baumannii A489; without polymyxin B; 1st experiment; read-out: MIC without PB.
Assay [15] deals with A. baumannii A473. The assay can be described thus: Preliminary MBC without and with sub-inhibitory polymyxin B (Example 4). The assay is classed as cell-based, Acinetobacter baumannii. To be noted: Acinetobacter baumannii, A473, A. baumannii A473, without polymyxin B, 1st experiment, read-out: MBC without PB.
In assay [16] the test system is A. baumannii A387. The assay is described as follows: MIC without and with sub-inhibitory polymyxin B (Example 4). The assay is classed as cell-based, Acinetobacter baumannii. The conditions noted are these: Acinetobacter baumannii, A387, A. baumannii A387; without polymyxin B; 1st experiment; read-out: MIC without PB.
Assay [17] relates to A. baumannii A329. The assay can be described thus: Preliminary MBC without and with sub-inhibitory polymyxin B (Example 4). The conditions noted are these: Acinetobacter baumannii, A329, A. baumannii A329, without polymyxin B, 1st experiment, read-out: MBC without PB. The assay is classed as cell-based, Acinetobacter baumannii.

In brackets after ≈: the same amount, converted by molar mass.

Take `Cc1c(-c2ccc(N)c(F)c2)c(F)cn2c(=O)c(C(=O)O)cc(C3CC3)c12` [Compound 17, 8-(3-fluoro-4-amino-phenyl)-1-cyclopropyl-7-fluoro-9-methyl-4-oxo-quinolizine-3-carboxylic acid]: the MIC in [1] was 8 µg/mL (≈ 21.6 µM); in the assay with A. baumannii A473 [4], 4 µg/mL (≈ 10.8 µM); in the assay on A. baumannii A472 [6] it was 4 µg/mL (≈ 10.8 µM); with A. baumannii J2 [8], 4 µg/mL (≈ 10.8 µM); in the assay with A. baumannii A329 [11], 8 µg/mL (≈ 21.6 µM); in assay [12] it was 1 to 16 µg/mL (≈ 2.7 to 43.2 µM). For the same compound, the MIC came to 4 µg/mL (≈ 10.8 µM) in the assay on A. baumannii A401 [13], 8 µg/mL (≈ 21.6 µM) with A. baumannii A489 [14] and 1 µg/mL (≈ 2.7 µM) in the assay on A. baumannii A387 [16]. The MBC was 4 µg/mL (≈ 10.8 µM) in the assay with A. baumannii J2 [2]; 8 µg/mL (≈ 21.6 µM) in the assay on A. baumannii A401 [3]; 8 µg/mL (≈ 21.6 µM) in [5]; 4 µg/mL (≈ 10.8 µM) in the assay with A. baumannii A472 [7]; 2 µg/mL (≈ 5.4 µM) in the assay with A. baumannii A387 [9]; 4 µg/mL (≈ 10.8 µM) in the assay with A. baumannii A489 [10]. In addition, the values for the MBC in the assay with A. baumannii ATCC 19606, with A. baumannii A473 [15] and with A. baumannii A329 [17] were 1 µg/mL (≈ 2.7 µM), 4 µg/mL (≈ 10.8 µM) and 8 µg/mL (≈ 21.6 µM), respectively.
